Consider 28 compounds from patent publication US20250129067A1 (Progentos Therapeutics, Inc., priority 2021, published 2025).

One data set has as its target PDGFRα (Homo sapiens (Human), UniProt P16234). As to the kind of experiment: PDGFRα kinase enzyme assay (Promega PDGFRα Kinase Enzyme System, ADP-Glo). The data set is classed as biochemical. As to conditions: 11-point dose response, 10,000 nM to 0.169 nM; 150 uM ATP; BLQ = below limit of quantitation; read-out: IC50 Values on PDGFRα Kinase Inhibition, IC50. In outline: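 Read-out was ADP-Glo: remaining ATP depleted, ADP converted to luminescence and compared with a standard curve.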

In data set [1] the test system is Oligodendrocyte progenitor cells (OPCs). The data set can be described thus: In vitro OPC differentiation assay, GPR17 expression (immunocytochemistry). The note with it: 3 μM (10× concentration, final 0.3 μM); 72 hours; fold change over vehicle.

PDGFRα, sequence (P16234 24-1089): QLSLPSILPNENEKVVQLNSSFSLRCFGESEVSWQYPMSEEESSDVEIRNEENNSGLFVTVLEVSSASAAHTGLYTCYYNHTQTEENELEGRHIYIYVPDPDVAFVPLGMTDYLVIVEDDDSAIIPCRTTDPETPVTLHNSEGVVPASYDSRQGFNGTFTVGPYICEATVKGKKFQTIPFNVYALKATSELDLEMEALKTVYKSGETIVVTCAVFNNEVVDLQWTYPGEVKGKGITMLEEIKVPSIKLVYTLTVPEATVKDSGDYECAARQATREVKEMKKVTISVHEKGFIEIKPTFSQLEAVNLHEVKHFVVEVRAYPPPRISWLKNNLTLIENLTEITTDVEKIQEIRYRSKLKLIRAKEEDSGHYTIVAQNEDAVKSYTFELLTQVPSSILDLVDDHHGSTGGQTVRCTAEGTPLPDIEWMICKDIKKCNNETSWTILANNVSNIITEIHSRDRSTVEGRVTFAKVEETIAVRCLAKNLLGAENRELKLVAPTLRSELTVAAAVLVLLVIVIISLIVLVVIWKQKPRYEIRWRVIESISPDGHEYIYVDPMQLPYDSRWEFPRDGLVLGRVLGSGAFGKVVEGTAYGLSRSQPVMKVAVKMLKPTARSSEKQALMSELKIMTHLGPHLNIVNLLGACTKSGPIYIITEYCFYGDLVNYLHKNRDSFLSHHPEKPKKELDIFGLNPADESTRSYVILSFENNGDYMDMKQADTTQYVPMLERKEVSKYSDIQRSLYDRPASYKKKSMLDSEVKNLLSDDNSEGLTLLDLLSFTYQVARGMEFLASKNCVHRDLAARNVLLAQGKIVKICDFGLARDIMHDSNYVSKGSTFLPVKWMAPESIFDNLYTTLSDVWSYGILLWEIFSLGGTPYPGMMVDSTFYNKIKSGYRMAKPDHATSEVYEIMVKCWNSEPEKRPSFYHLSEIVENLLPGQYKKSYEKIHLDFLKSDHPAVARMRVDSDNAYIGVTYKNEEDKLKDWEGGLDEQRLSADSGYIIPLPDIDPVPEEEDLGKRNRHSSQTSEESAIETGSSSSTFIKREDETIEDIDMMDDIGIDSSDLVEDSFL

The IC50 is the concentration that inhibits the measured activity by half. Consider `Cn1cc(-c2ccn3c(N4CCCN(c5ncc(Cc6ccccc6)cn5)CC4)cnc3n2)cn1` [Compound 122, 3-(4-(5-benzylpyrimidin-2-yl)-1,4-diazepan-1-yl)-7-(1-methyl-1H-pyrazol-4-yl)imidazo[1,2-a]pyrimidine], for which, at PDGFRα, the IC50 was greater than 10 µM. Besides, the “GPR17 Fold Induction (Over Vehicle; 3 μM)” value (“GPR17 Fold Induction” for short) in data set [1] is listed as 3.19.
For the compound `Cn1cc(-c2ccc3c(NCCNc4ncc(Cc5ccccc5)cn4)cnn3c2)cn1` [Compound 123, N^1-(5-benzylpyrimidin-2-yl)-N^2-(6-(1-methyl-1H-pyrazol-4-yl)pyrazolo[1,5-a]pyridin-3-yl)ethane-1,2-diamine], the IC50 on PDGFRα was greater than 10 µM. For the same compound, in data set [1], the “GPR17 Fold Induction” value worked out at 1.34.
For `Cn1cc(-c2ccc3c(NCCCNc4ncc(Cc5ccccc5)cn4)cnn3c2)cn1` [Compound 124, N^1-(5-benzylpyrimidin-2-yl)-N^3-(6-(1-methyl-1H-pyrazol-4-yl)pyrazolo[1,5-a]pyridin-3-yl)propane-1,3-diamine], in that order: greater than 10 µM and 1.47.
The like results for `CN(CCNc1ncc(Cc2ccccc2)cn1)c1cnn2cc(-c3cnn(C)c3)ccc12` [Compound 125, N^1-(5-benzylpyrimidin-2-yl)-N^2-methyl-N^2-(6-(1-methyl-1H-pyrazol-4-yl)pyrazolo[1,5-a]pyridin-3-yl)ethane-1,2-diamine] were, in that order, greater than 10 µM and 1.09.
The like results for `CN(CCNc1cnn2cc(-c3cnn(C)c3)ccc12)c1ncc(Cc2ccccc2)cn1` [Compound 126, N^1-(5-benzylpyrimidin-2-yl)-N^1-methyl-N^2-(6-(1-methyl-1H-pyrazol-4-yl)pyrazolo[1,5-a]pyridin-3-yl)ethane-1,2-diamine] were, in that order, 7.12 µM and 5.91.
Regarding `CN(CCN(C)c1cnn2cc(-c3cnn(C)c3)ccc12)c1ncc(Cc2ccccc2)cn1` [Compound 127, N^1-(5-benzylpyrimidin-2-yl)-N^1,N^2-dimethyl-N^2-(6-(1-methyl-1H-pyrazol-4-yl)pyrazolo[1,5-a]pyridin-3-yl)ethane-1,2-diamine], at PDGFRα, the IC50 is greater than 10 µM. Further, the “GPR17 Fold Induction” value in data set [1] is given as 1.36.
For `CN(CCCNc1ncc(Cc2ccccc2)cn1)c1cnn2cc(-c3cnn(C)c3)ccc12` [Compound 128, N^1-(5-benzylpyrimidin-2-yl)-N^3-methyl-N^3-(6-(1-methyl-1H-pyrazol-4-yl)pyrazolo[1,5-a]pyridin-3-yl)propane-1,3-diamine], in that order: greater than 10 µM and 1.45.
For `CN(CCCNc1cnn2cc(-c3cnn(C)c3)ccc12)c1ncc(Cc2ccccc2)cn1` [Compound 129, N^1-(5-benzylpyrimidin-2-yl)-N^1-methyl-N^3-(6-(1-methyl-1H-pyrazol-4-yl)pyrazolo[1,5-a]pyridin-3-yl)propane-1,3-diamine], in that order: greater than 10 µM and 2.27.
With `Cn1cc(-c2ccc3c(C4=CCC(C(=O)OCc5ccccc5)CC4)cnn3c2)cn1` (centres unmarked) [Compound 132, benzyl 4-(6-(1-methyl-1H-pyrazol-4-yl)pyrazolo[1,5-a]pyridin-3-yl)cyclohex-3-ene-1-carboxylate], on PDGFRα, the IC50 was 0.744 µM. For the same compound, the “GPR17 Fold Induction” value in data set [1] turned out to be 5.85.
For `Cn1cc(-c2ccc3c(C4=CCC(C(=O)OCc5ccccc5)C4)cnn3c2)cn1` (centres unmarked) [Compound 133, benzyl 3-[6-(1-methylpyrazol-4-yl)pyrazolo[1,5-a]pyridin-3-yl]cyclopent-3-ene-1-carboxylate], in that order: 1.44 µM and 3.02.
For `CN(Cc1ccccc1)C(=O)C1CC=C(c2cnn3cc(-c4cnn(C)c4)ccc23)C1` (centres unmarked) [Compound 135, N-benzyl-N-methyl-3-(6-(1-methyl-1H-pyrazol-4-yl)pyrazolo[1,5-a]pyridin-3-yl)cyclopent-3-ene-1-carboxamide], in that order: 3.63 µM and 7.38.
For the compound `Cn1cc(-c2ccc3c(C4CCC(C(=O)OCc5ccccc5)CC4)cnn3c2)cn1` (centres unmarked) [Compound 136, benzyl 4-(6-(1-methyl-1H-pyrazol-4-yl)pyrazolo[1,5-a]pyridin-3-yl)cyclohexane-1-carboxylate], the IC50 on PDGFRα was greater than 10 µM. The “GPR17 Fold Induction” value in data set [1] came out at 3.64.
As for `Cn1cc(-c2ccc3c(C4CCC(C(=O)OCc5ccccc5)C4)cnn3c2)cn1` (centres unmarked) [Compound 137], the IC50 on PDGFRα is 5.05 µM. Further, the “GPR17 Fold Induction” value in data set [1] is 0.99.
For `Cn1cc(-c2ccc3c(C4CCC(COc5ccccc5)CC4)cnn3c2)cn1` (centres unmarked) [Compound 138, 6-(1-methyl-1H-pyrazol-4-yl)-3-(4-(phenoxymethyl)cyclohexyl)pyrazolo[1,5-a]pyridine], in that order: 9.01 µM and 0.98.
The like results for `CN(Cc1ccccc1)C(=O)C1CCC(c2cnn3cc(-c4cnn(C)c4)ccc23)CC1` (centres unmarked) [Compound 139, N-benzyl-N-methyl-4-(6-(1-methyl-1H-pyrazol-4-yl)pyrazolo[1,5-a]pyridin-3-yl)cyclohexane-1-carboxamide] were, in that order, 8.81 µM and 3.87.
For `CN(Cc1ccccc1)C(=O)C1CCC(c2cnn3cc(-c4cnn(C)c4)ccc23)C1` (centres unmarked) [Compound 140, N-benzyl-N-methyl-3-(6-(1-methyl-1H-pyrazol-4-yl)pyrazolo[1,5-a]pyridin-3-yl)cyclopentane-1-carboxamide], in that order: greater than 10 µM and 3.54.
Regarding `Cn1cc(-c2ccc3c(C4CCC(CCc5ccccc5)CC4)cnn3c2)cn1` (centres unmarked) [Compound 141, 6-(1-methyl-1H-pyrazol-4-yl)-3-(4-phenethylcyclohexyl)pyrazolo[1,5-a]pyridine], the IC50 at PDGFRα was greater than 10 µM. Besides, the “GPR17 Fold Induction” value in data set [1] worked out at 1.09.
In the case of `CC1CN(c2ncc(Cc3ccccc3)cn2)CCN1c1cnn2cc(-c3cnn(C)c3)ccc12` (centres unmarked) [Compound 142, 3-(4-(5-benzylpyrimidin-2-yl)-2-methylpiperazin-1-yl)-6-(1-methyl-1H-pyrazol-4-yl)pyrazolo[1,5-a]pyridine], the IC50 at PDGFRα turned out to be 9.54 µM. Further, in data set [1], the “GPR17 Fold Induction” value was 5.85.
In the case of `CC1CN(c2cnn3cc(-c4cnn(C)c4)ccc23)CCN1c1ncc(Cc2ccccc2)cn1` (centres unmarked) [Compound 143, 3-(4-(5-benzylpyrimidin-2-yl)-3-methylpiperazin-1-yl)-6-(1-methyl-1H-pyrazol-4-yl)pyrazolo[1,5-a]pyridine], the IC50 on PDGFRα is 0.616 µM. In addition, in data set [1], the “GPR17 Fold Induction” value was found to be 3.89.
Take `Cn1cc(-c2ccc3c(N4CCN(c5ncc(Cc6ccccc6)cn5)C(=O)C4)cnn3c2)cn1` [Compound 144, 1-(5-benzylpyrimidin-2-yl)-4-(6-(1-methyl-1H-pyrazol-4-yl)pyrazolo[1,5-a]pyridin-3-yl)piperazin-2-one]: the IC50 at PDGFRα is 4.53 µM. For the same compound, the “GPR17 Fold Induction” value in data set [1] turned out to be 2.64.
With `Cn1cc(-c2ccc3c(N4CCC(C(=O)OCc5ccccc5)CC4)cnn3c2)cn1` [Compound 145, benzyl 1-(6-(1-methyl-1H-pyrazol-4-yl)pyrazolo[1,5-a]pyridin-3-yl)piperidine-4-carboxylate], the IC50 on PDGFRα amounted to 6.97 µM. Besides, the “GPR17 Fold Induction” value in data set [1] is reported as 1.73.
As for `Cn1cc(-c2ccc3c(N4CCC(C(=O)NCc5ccccc5)CC4)cnn3c2)cn1` [Compound 146, N-benzyl-1-(6-(1-methyl-1H-pyrazol-4-yl)pyrazolo[1,5-a]pyridin-3-yl)piperidine-4-carboxamide], the IC50 on PDGFRα is 5.69 µM. Further, in data set [1], the “GPR17 Fold Induction” value worked out at 4.45.
For the compound `CN(Cc1ccccc1)C(=O)C1CCN(c2cnn3cc(-c4cnn(C)c4)ccc23)CC1` [Compound 147, N-benzyl-N-methyl-1-(6-(1-methyl-1H-pyrazol-4-yl)pyrazolo[1,5-a]pyridin-3-yl)piperidine-4-carboxamide], the half-inhibitory concentration (IC50) at PDGFRα worked out at 6.72 µM. For the same compound, the “GPR17 Fold Induction” value in data set [1] worked out at 2.23.
The like results for `Cn1cc(-c2ccc3c(N4CC(Nc5ncc(Cc6ccccc6)cn5)C4)cnn3c2)cn1` [Compound 149, 5-benzyl-N-(1-(6-(1-methyl-1H-pyrazol-4-yl)pyrazolo[1,5-a]pyridin-3-yl)azetidin-3-yl)pyrimidin-2-amine] were, in that order, greater than 10 µM and 8.88.
Take `Cn1cc(-c2ccc3c(N4CCN(c5ncc(CCc6ccccc6)cn5)CC4)cnn3c2)cn1` [Compound 152, 6-(1-methyl-1H-pyrazol-4-yl)-3-(4-(5-phenethylpyrimidin-2-yl)piperazin-1-yl)pyrazolo[1,5-a]pyridine]: the IC50 at PDGFRα worked out at 7.19 µM. The “GPR17 Fold Induction” value in data set [1] is recorded as 4.33.
In the case of `Cn1cc(-c2ccc3c(N4CCN(c5nsc(Cc6ccccc6)n5)CC4)cnn3c2)cn1` [Compound 154, 5-benzyl-3-(4-(6-(1-methyl-1H-pyrazol-4-yl)pyrazolo[1,5-a]pyridin-3-yl)piperazin-1-yl)-1,2,4-thiadiazole], the IC50 at PDGFRα worked out at 0.697 µM. The “GPR17 Fold Induction” value in data set [1] is on record as 13.45.
For `Cn1cc(-c2ccc3c(N4CCN(c5nnc(Cc6ccccc6)o5)CC4)cnn3c2)cn1` [Compound 155, 2-benzyl-5-(4-(6-(1-methyl-1H-pyrazol-4-yl)pyrazolo[1,5-a]pyridin-3-yl)piperazin-1-yl)-1,3,4-oxadiazole], the IC50 at PDGFRα was 0.0586 µM. Further, in data set [1], the “GPR17 Fold Induction” value is listed as 5.02.
The like results for `Cn1cc(-c2ccc3c(N4CCN(S(=O)(=O)NCc5ccccc5)CC4)cnn3c2)cn1` [Compound 159, N-benzyl-4-[6-(1-methyl-1H-pyrazol-4-yl)pyrazolo[1,5-a]pyridin-3-yl]piperazine-1-sulfonamide] were, in that order, 0.45 µM and 3.62.
